Test results as given in article PMC11747885, “Potent inhibitors of the human RNA ligase Rlig1 highlights its role in RNA integrity maintenance under oxidative cellular stress” (Chemical Science, 2025).
Several values for one entry are separate records, joined by “and”; a condition that tells them apart may be missing. Equal entries are not always repeated. Where two headings read alike, the source gives them in different places.

How the values were obtained:
Rlig1-AMP = target: T1, Rlig1-AMP (Homo sapiens, UniProt Q8N999); assay: FRET-based high-throughput screening of inhibitors for Rlig1-AMP; type: biochemical; conditions: HTS hits; for Raw data [w Enyzm]: with enzyme; for Raw data [w/o Enzym]: without enzyme
T1 construct: made in house; host or cells: E. coli BL21 (DE3), pET15b-Rlig1
T1 sequence (Q8N999 whole entry): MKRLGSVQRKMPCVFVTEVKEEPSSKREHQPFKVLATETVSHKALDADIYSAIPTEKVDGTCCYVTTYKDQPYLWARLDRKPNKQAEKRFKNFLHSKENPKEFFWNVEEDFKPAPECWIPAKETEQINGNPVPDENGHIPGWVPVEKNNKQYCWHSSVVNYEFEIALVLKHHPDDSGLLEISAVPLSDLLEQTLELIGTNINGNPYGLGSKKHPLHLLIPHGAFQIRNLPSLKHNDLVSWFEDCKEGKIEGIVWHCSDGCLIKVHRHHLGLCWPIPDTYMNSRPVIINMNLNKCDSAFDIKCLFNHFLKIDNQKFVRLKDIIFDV

KDR = test system: KDR; set-up: method as in MedChemExpress; conditions: ref MedChemExpress; cited from earlier work
[1] = test system: other members of the PLK family; set-up: method as in MedChemExpress; conditions: ref MedChemExpress; cited from earlier work
Aurora A = test system: Aurora A; set-up: method as in MedChemExpress; conditions: ref MedChemExpress; cited from earlier work
FLT-3 = test system: FLT-3; set-up: method as in MedChemExpress; conditions: ref MedChemExpress; cited from earlier work
Aurora B = test system: Aurora B; set-up: method as in MedChemExpress; conditions: ref MedChemExpress; cited from earlier work
ETB receptor = target: ETB receptor; set-up: method as in MedChemExpress; conditions: inhibition of ET-1 binding to human Girardi heart cells (ETB); ref MedChemExpress; cited from earlier work
ETA receptors = target: ETA receptors; set-up: method as in MedChemExpress; conditions: binding to ETA receptors in SK-N-MC cells; ref MedChemExpress; cited from earlier work
PKC-βII = test system: PKC-βII; set-up: method as in MedChemExpress; conditions: ref MedChemExpress; cited from earlier work
rat brain PKC = test system: rat brain PKC; set-up: method as in MedChemExpress; conditions: ref MedChemExpress; cited from earlier work
PKC-γ = test system: PKC-γ; set-up: method as in MedChemExpress; conditions: ref MedChemExpress; cited from earlier work
PKC-α = test system: PKC-α; set-up: method as in MedChemExpress; conditions: ref MedChemExpress; cited from earlier work
PKC-ε = test system: PKC-ε; set-up: method as in MedChemExpress; conditions: ref MedChemExpress; cited from earlier work
PKC-βI = test system: PKC-βI; set-up: method as in MedChemExpress; conditions: ref MedChemExpress; cited from earlier work
Pim-3 = test system: Pim-3; set-up: method as in MedChemExpress; conditions: ref MedChemExpress; cited from earlier work
Pim-2 = test system: Pim-2; set-up: method as in MedChemExpress; conditions: ref MedChemExpress; cited from earlier work
Pim-1 = test system: Pim-1; set-up: method as in MedChemExpress; conditions: ref MedChemExpress; cited from earlier work
[2] = target: human DNA topoisomerase I; set-up: method as in MedChemExpress; conditions: ref MedChemExpress; cited from earlier work
NLRP3 inflammasome = test system: NLRP3 inflammasome; set-up: method as in MedChemExpress; conditions: ref MedChemExpress; cited from earlier work
[3] = DMSO; ref MedChemExpress; cited from earlier work
wild-type h5-HT1B = target: wild-type h5-HT1B; set-up: method as in MedChemExpress; conditions: ref MedChemExpress; cited from earlier work
wild-type h5-HT1D = target: wild-type h5-HT1D; set-up: method as in MedChemExpress; conditions: ref MedChemExpress; cited from earlier work
JNK2 = test system: JNK2; set-up: method as in MedChemExpress; conditions: ref MedChemExpress; cited from earlier work
JNK3 = test system: JNK3; set-up: method as in MedChemExpress; conditions: ref MedChemExpress; cited from earlier work
JNK1 = test system: JNK1; set-up: method as in MedChemExpress; conditions: ref MedChemExpress; cited from earlier work
GSK3β = test system: GSK3β; set-up: method as in MedChemExpress; conditions: ref MedChemExpress; cited from earlier work
[4] = DMSO; ref MedChemExpress; cited from earlier work; remark: listed apart in the source
CXXC5-DVL = test system: CXXC5-DVL; set-up: method as in MedChemExpress; conditions: ref MedChemExpress; cited from earlier work
MAGL = test system: MAGL; set-up: method as in MedChemExpress; conditions: ref MedChemExpress; cited from earlier work
[5] = test system: human p53 and CREB binding protein association; set-up: method as in MedChemExpress; conditions: at 50 μM; ref MedChemExpress; cited from earlier work
CDK7 = target: CDK7; set-up: method as in MedChemExpress; conditions: ref MedChemExpress; cited from earlier work
RNA synthesis = test system: RNA synthesis; set-up: method as in MedChemExpress; conditions: ref MedChemExpress; cited from earlier work
DNA synthesis = test system: DNA synthesis; set-up: method as in MedChemExpress; conditions: ref MedChemExpress; cited from earlier work
Syk = test system: Syk; set-up: method as in MedChemExpress; conditions: ref MedChemExpress; cited from earlier work
PI3Kα = test system: PI3Kα; set-up: method as in MedChemExpress; conditions: ref MedChemExpress; cited from earlier work
HIV-1KM018 = test system: HIV-1KM018; set-up: method as in MedChemExpress; conditions: ref MedChemExpress; cited from earlier work
HIV-1IIIB = test system: HIV-1IIIB; set-up: method as in MedChemExpress; conditions: ref MedChemExpress; cited from earlier work
HIV-1(74V) = test system: HIV-1(74V); set-up: method as in MedChemExpress; conditions: ref MedChemExpress; cited from earlier work
TMEM16A chloride channel = test system: TMEM16A chloride channel; set-up: method as in MedChemExpress; conditions: ref MedChemExpress; cited from earlier work
SirT2 = test system: SirT2; set-up: method as in MedChemExpress; conditions: ref MedChemExpress; cited from earlier work
SirT5 = test system: SirT5; set-up: method as in MedChemExpress; conditions: ref MedChemExpress; cited from earlier work
DNA topoisomerase II = target: DNA topoisomerase II; set-up: method as in MedChemExpress; conditions: ref MedChemExpress; cited from earlier work
hERG channel = test system: hERG channel; set-up: method as in MedChemExpress; conditions: ref MedChemExpress; cited from earlier work
[6] = difference of raw data without and with enzyme
[7] = difference of raw data w/o and w enzyme

Molecule	1-D Distance.npi (Rlig1-AMP; MedChemExpress library)	1-D Distance (Rlig1-AMP; [6])	Raw data [w Enyzm] (Rlig1-AMP)	Raw data [w/o Enzym] (Rlig1-AMP)	also measured
COc1ccc2[nH]c(O)c(C=c3ccc4c(c3)N=NC=4/C=C/c3ccc(N4CCN(C)CC4)nc3)c2c1.Cl.Cl [(1E)-CFI-400437 (dihydrochloride)]	102.026	187	4069	3882	IC50 (KDR): 480 nM; IC50 [1]: > 10000 nM; IC50 (Aurora A): 370 nM; IC50 (FLT-3): 180 nM; IC50 (Aurora B): 210 nM
CCCC[C@@H](NC(=O)[C@@H](Cc1cn(C(=O)OC)c2ccccc12)NC(=O)[C@H](CC(C)(C)C)NC(=O)N1[C@H](C)CCC[C@@H]1C)C(=O)[O-].[Na+] [BQ-788]	75.2571	1704	8619	10323	IC50 (ETB receptor): 1.2 nM; IC50 (ETA receptors): 1300 nM
CC(=O)O.Cn1cc(C2=C(c3cn(CCCN)c4ccccc34)C(=O)NC2=O)c2ccccc21 [Bisindolylmaleimide VIII (acetate)]	70.0569	1909	2831	4740	IC50 (PKC-βII): 163 nM; IC50 (rat brain PKC): 158 nM; IC50 (PKC-γ): 213 nM; IC50 (PKC-α): 53 nM; IC50 (PKC-ε): 175 nM; IC50 (PKC-βI): 195 nM
CN1CCCN(C(=O)c2cccc(-c3ccc(/C=C4/C(=O)Nc5ccc(Cl)cc54)o3)c2)CC1.Cl [CX-6258 (hydrochloride)]	75.5915	1601	[…]	6590	IC50 (Pim-3): 16 nM; IC50 (Pim-2): 25 nM; IC50 (Pim-1): […]
COc1cccc2c1C(=O)c1c(O)c3c(c(O)c1C2=O)C[C@@](O)(C(=O)CO)C[C@@H]3O[C@H]1C[C@H](N)[C@H](O)[C@H](C)O1.Cl [Doxorubicin (hydrochloride)]	103.376	134	1247	–	IC50 [2]: 800 nM
CC(C)n1ccc(S(=O)(=O)NC(=O)Nc2c3c(cc4c2CCC4)CCC3)n1 [Emlenoflast (sodium)]	80.6711	1207	9218	10425	IC50 (NLRP3 inflammasome): < 100 nM
COc1ccc(NC(=O)c2ccc(-c3ccncc3)c(C)c2)cc1N1CCN(C)CC1 [GR 125743]	–	–	8833	10262	solubility [3]: 100 mg/mL and 240.08 mM; pKi (wild-type h5-HT1B): 8.85; 1-D Distance (Rlig1-AMP; [7]): 1429; pKi (wild-type h5-HT1D): 8.31
O=C1Nc2ccccc2/C1=C1/Nc2ccccc2/C1=N\O [Indirubin-3′-oxime]	72.577	1766	1847	3613	IC50 (JNK2): 1400 nM; IC50 (JNK3): 1000 nM; IC50 (JNK1): 800 nM
CON=C1C(=C2C(=O)Nc3cc(Cl)c(Cl)cc32)Nc2ccccc21 [KY19382]	101.229	138	6054	6192	IC50 (GSK3β): 10 nM; solubility [4]: 5 mg/mL and 13.88 mM; IC50 (CXXC5-DVL): 19 nM
CC(C)c1ccc(C(=O)C2CCN(C(=O)c3cc(O)ccc3F)CC2)cc1 [MAGL-IN-1]	70.8371	1819	9200	11019	IC50 (MAGL): 80 nM
CC(=O)n1c2c(c3ccccc31)CCCC2=O [MS7972]	–	–	8943	10149	1-D Distance (Rlig1-AMP; [7]): 1206; 1-D Distance.npi (Rlig1-AMP; normalized value (npi)): 81.4632; block of BRD interaction [5]: MS7972 is a small molecule that blocks human p53 and CREB binding protein association. MS7972 can almost completely block this BRD interaction at 50 μM[1].
CN(C)C/C=C/C(=O)Nc1ccc(C(=O)N[C@@]2(C)CCC[C@@H](Nc3ncc(Cl)c(-c4c[nH]c5ccccc45)n3)C2)nc1 [Mevociclib]	95.3899	561	5749	5188	Ki (CDK7): 17.4 nM
CCc1c2c(nc3ccc(O)cc13)-c1cc3c(c(=O)n1C2)COC(=O)[C@]3(O)CC [SN-38]	72.669	1812	9411	11223	solubility [4]: 50 mg/mL and 127.42 mM; IC50 (RNA synthesis): 1300 nM; IC50 (DNA synthesis): 77 nM
Cc1nn(-c2ccnc(Nc3ccc(-c4csc5c(=O)cc(N6CCOCC6)oc45)cc3)n2)cc1CN1CCC1 [SRX3207]	89.3143	966	7329	6363	solubility [4]: 5 mg/mL and 9.00 mM; IC50 (Syk): 10.7 nM; IC50 (PI3Kα): 861 nM
O=C(O)[C@H]1O[C@@H](Oc2cc3oc(-c4ccc(O)cc4)cc(=O)c3c(O)c2O)[C@H](O)[C@@H](O)[C@@H]1O [Scutellarin]	–	1804	9318	11122	EC50 (HIV-1KM018): 136000 nM; solubility [4]: 100 mg/mL and 216.28 mM; EC50 (HIV-1IIIB): 26000 nM; EC50 (HIV-1(74V)): 253000 nM
CC(C)=CC[C@@H](O)C1=CC(=O)c2c(O)ccc(O)c2C1=O [Shikonin]	–	1574	3611	–	IC50 (TMEM16A chloride channel): 6500 nM
Cc1ccc(C(=O)Nc2ccc(S(=O)(=O)[O-])c3cc(S(=O)(=O)[O-])cc(S(=O)(=O)[O-])c23)cc1NC(=O)c1cccc(NC(=O)Nc2cccc(C(=O)Nc3cc(C(=O)Nc4ccc(S(=O)(=O)[O-])c5cc(S(=O)(=O)[O-])cc(S(=O)(=O)[O-])c45)ccc3C)c2)c1.[Na+].[Na+].[Na+].[Na+].[Na+].[Na+] [Suramin (sodium salt)]	85.8095	1150	13348	14498	IC50 (SirT2): 1150 nM; IC50 (SirT5): 22000 nM; IC50 (DNA topoisomerase II): 5000 nM
Tannic acid	92.4189	691	13343	14034	IC50 (hERG channel): 3400 nM
